pIC50: −log10 of the molar value.
Tests used:
BTK T474I = target: T1, BTK T474I (Homo sapiens, UniProt Q06187, T474I); assay: Kinase activity inhibition assay (HTRF TK Kit); assay type: biochemical
T1 construct: purchased SignalChem B10-12HH
Summary of the method: (§1)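 HTRF TK-substrate phosphorylation assay, set up on ice, then the kinase reaction ran at room temperature in 1% DMSO. Detection used streptavidin-XL665 plus TK antibody-cryptate for 1 h at RT, and the 665/620 nm ratio was read. IC50s came from a four-parameter nonlinear fit of % inhibition against log concentration.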

BTK kinase = target: T2, BTK kinase (Homo sapiens, UniProt Q06187); assay: Kinase activity inhibition assay (HTRF TK Kit); assay type: biochemical
T2 construct: purchased Invitrogen PV3587
Summary of the method: as §1

BTK C481S = target: T3, BTK C481S (Homo sapiens, UniProt Q06187, C481S); assay: Kinase activity inhibition assay (HTRF TK Kit); assay type: biochemical
T3 construct: purchased Carna 08-547
Summary of the method: as §1

NIH/3T3 BTK C481S cells = assay: Phosphor-BTK(Y223) assay, adherent cells; assay type: cell-based; conditions: Mus musculus, NIH3T3, phosphorylated BTK Y223, NIH/3T3 BTK C481S cells; read-out: NIH/3T3 BTK-C481S pBTK
Summary of the method: (§2)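 NIH/3T3 cells expressing WT or C481S BTK were pretreated with compound for 0.5 h at 37 °C, then stimulated with 1 mM Na3VO4 (final) for 2 h. Lysates were assayed by HTRF for p-BTK Y223 using the 665/620 nm ratio. IC50 was obtained by nonlinear fit of % inhibition versus 0.5% DMSO control.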

NIH/3T3 BTK WT cells = assay: Phosphor-BTK(Y223) assay, adherent cells; assay type: cell-based; conditions: Mus musculus, NIH3T3, phosphorylated BTK Y223, NIH/3T3 BTK WT cells; read-out: NIH/3T3 BTK-WT pBTK
Summary of the method: as §2

T3 sequence (Q06187 whole entry C481S): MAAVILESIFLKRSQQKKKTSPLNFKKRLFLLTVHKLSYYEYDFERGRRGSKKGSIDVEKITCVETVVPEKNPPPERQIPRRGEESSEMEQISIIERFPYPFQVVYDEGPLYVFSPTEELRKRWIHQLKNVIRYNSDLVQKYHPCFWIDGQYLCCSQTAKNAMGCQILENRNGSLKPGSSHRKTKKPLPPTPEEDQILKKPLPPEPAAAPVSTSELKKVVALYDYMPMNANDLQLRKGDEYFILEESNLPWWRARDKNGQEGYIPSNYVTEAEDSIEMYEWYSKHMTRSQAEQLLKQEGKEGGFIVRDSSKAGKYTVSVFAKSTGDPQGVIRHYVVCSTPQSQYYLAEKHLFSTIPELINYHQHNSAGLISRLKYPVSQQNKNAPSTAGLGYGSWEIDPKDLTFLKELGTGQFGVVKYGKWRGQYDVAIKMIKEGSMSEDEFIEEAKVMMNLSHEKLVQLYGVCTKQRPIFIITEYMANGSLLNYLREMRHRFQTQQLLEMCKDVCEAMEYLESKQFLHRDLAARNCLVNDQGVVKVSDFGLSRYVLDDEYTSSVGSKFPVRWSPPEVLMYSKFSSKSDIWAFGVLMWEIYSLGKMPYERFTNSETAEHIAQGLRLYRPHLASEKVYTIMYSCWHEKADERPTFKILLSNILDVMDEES
T1 sequence (Q06187 whole entry T474I): as the sequence (Q06187 whole entry C481S) above, with T474I, S481C counted along it
T2 sequence (Q06187 whole entry): as the sequence (Q06187 whole entry C481S) above, with S481C counted along it

| SMILES | pIC50 (BTK T474I) | pIC50 (BTK kinase) | pIC50 (BTK C481S) | pIC50 (NIH/3T3 BTK C481S cells) | pIC50 (NIH/3T3 BTK WT cells) |
| --- | --- | --- | --- | --- | --- |
| COc1ccc(F)cc1C(=O)NCc1ccc(-c2ncc(-c3ccc(OCCN(C)C)cn3)c3[nH]nc(N)c23)cc1 [Example 60, N-(4-(3-amino-7-(5-(2-(dimethylamino)ethoxy)pyridin-2-yl)-1H-pyrazolo[4,3-c]pyridin-4-yl)benzyl)-5-fluoro-2-methoxybenzamide] | 7.30 to 8.30 | ≥ 9.00 | ≥ 9.00 | ≥ 8.30 | ≥ 8.30 |
| COc1ccc(F)cc1C(=O)NCc1ccc(-c2ncc(-c3ccc(OCCN4CCCC4)cn3)c3[nH]nc(N)c23)cc1 [Example 62, N-(4-(3-amino-7-(5-(2-(pyrrolidin-1-yl)ethoxy)pyridin-2-yl)-1H-pyrazolo[4,3-c]pyridin-4-yl)benzyl)-5-fluoro-2-methoxybenzamide] | 7.30 to 8.30 | 8.30 to 9.00 | 8.30 to 9.00 | ≥ 8.30 | ≥ 8.30 |
| COc1ccc(F)cc1C(=O)NCc1ccc(-c2ncc(-c3ccc(CN4CCCCC4)cn3)c3[nH]nc(N)c23)cc1 [Example 66, N-(4-(3-amino-7-(5-(piperidin-1-ylmethyl)pyridin-2-yl)-1H-pyrazolo[4,3-c]pyridin-4-yl)benzyl)-5-fluoro-2-methoxybenzamide] | 7.30 to 8.30 | ≥ 9.00 | ≥ 9.00 | ≥ 8.30 | ≥ 8.30 |
| COc1ccc(F)cc1C(=O)NCc1ccc(-c2ncc(-c3ccc(CN4CCOCC4)cn3)c3[nH]nc(N)c23)cc1 [Example 67, N-(4-(3-amino-7-(5-(morpholinomethyl)pyridin-2-yl)-1H-pyrazolo[4,3-c]pyridin-4-yl)benzyl)-5-fluoro-2-methoxybenzamide] | 6.30 to 7.30 | ≥ 9.00 | ≥ 9.00 | ≥ 8.30 | ≥ 8.30 |
| COc1ccc(F)cc1C(=O)NCc1ccc(-c2ncc(-c3cnn4cccnc34)c3[nH]nc(N)c23)cc1 [Example 70, N-(4-(3-amino-7-(pyrazolo[1,5-a]pyrimidin-3-yl)-1H-pyrazolo[4,3-c]pyridin-4-yl)benzyl)-5-fluoro-2-methoxybenzamide] | 6.30 to 7.30 | 8.30 to 9.00 | 8.30 to 9.00 | ≥ 8.30 | ≥ 8.30 |
| COc1ccc(F)cc1C(=O)NCc1ccc(-c2ncc(-c3cc4n(n3)CCN(C)C4)c3[nH]nc(N)c23)cc1 [Example 71, N-(4-(3-amino-7-(5-methyl-4,5,6,7-tetrahydropyrazolo[1,5-a]pyrazin-2-yl)-1H-pyrazolo[4,3-c]pyridin-4-yl)benzyl)-5-fluoro-2-methoxybenzamide] | 7.30 to 8.30 | 8.30 to 9.00 | ≥ 9.00 | ≥ 8.30 | ≥ 8.30 |
| COc1ccc(F)cc1C(=O)NCc1ccc(-c2ncc(-c3ccc(N4CCN(C)CC4)cn3)c3[nH]nc(N)c23)cc1 [Example 73, N-(4-(3-amino-7-(5-(4-methylpiperazin-1-yl)pyridin-2-yl)-1H-pyrazolo[4,3-c]pyridin-4-yl)benzyl)-5-fluoro-2-methoxybenzamide] | 7.30 to 8.30 | ≥ 9.00 | ≥ 9.00 | ≥ 8.30 | ≥ 8.30 |
| COc1ccc(F)cc1C(=O)NCc1ccc(-c2ncc(-c3ccc(N4CCN(C)C[C@@H]4C)cn3)c3[nH]nc(N)c23)cc1 [Example 74, (S)-N-(-4-(3-amino-7-(5-(2,4-dimethylpiperazin-1-yl)pyridin-2-yl) 1H-pyrazolo[4,3-c]pyridin-4-yl)benzyl)-5-fluoro-2-methoxybenzamide] | 7.30 to 8.30 | 8.30 to 9.00 | 8.30 to 9.00 | ≥ 8.30 | ≥ 8.30 |
| COc1ccc(F)cc1C(=O)NCc1ccc(-c2ncc(-c3nccn4cccc34)c3[nH]nc(N)c23)cc1 [Example 77, N-(4-(3-amino-7-(pyrrolo[1,2-a]pyrazin-1-yl)-1H-pyrazolo[4,3-c]pyridin-4-yl)benzyl)-5-fluoro-2-methoxybenzamide] | 6.30 to 7.30 | 8.30 to 9.00 | 8.30 to 9.00 | ≥ 8.30 | ≥ 8.30 |
| COc1ccc(F)cc1C(=O)NCc1ccc(-c2ncc(-c3ccc(NC(=O)C4CC4)cn3)c3[nH]nc(N)c23)cc1 [Example 79, N-(4-(3-amino-7-(5-(cyclopropaneformamido)pyridin-2-yl)-1H-pyrazolo[4,3-c]pyridin-4-yl)benzyl)-5-fluoro-2-methoxybenzamide] | < 6.30 | 7.30 to 8.30 | 7.30 to 8.30 | 7.30 to 8.00 | 8.00 to 8.30 |
| COc1ccc(F)cc1C(=O)NCc1ccc(-c2ncc(-c3cc(NC(=O)C4CC4)ccn3)c3[nH]nc(N)c23)cc1 [Example 80, N-(4-(3-amino-7-(4-(cyclopropaneformamido)pyridin-2-yl)-1H-pyrazolo[4,3-c]pyridin-4-yl)benzyl)-5-fluoro-2-methoxybenzamide] | 6.30 to 7.30 | 8.30 to 9.00 | 8.30 to 9.00 | 8.00 to 8.30 | 8.00 to 8.30 |
| COc1ccc(F)cc1C(=O)NCc1ccc(-c2nc(C)c(-c3ncccn3)c3[nH]nc(N)c23)cc1 [Example 84, N-(4-(3-amino-6-methyl-7-(pyrimidin-2-yl)-1H-pyrazolo[4,3-c]pyridin-4-yl)benzyl)-5-fluoro-2-methoxybenzamide] | 6.30 to 7.30 | 7.30 to 8.30 | 7.30 to 8.30 | 7.30 to 8.00 | 8.00 to 8.30 |

Now from value to compound, other results behind:

| pIC50 (BTK T474I) | pIC50 (BTK kinase) | pIC50 (BTK C481S) | SMILES | pIC50 (NIH/3T3 BTK C481S cells) | pIC50 (NIH/3T3 BTK WT cells) |
| --- | --- | --- | --- | --- | --- |
| 7.30 to 8.30 | ≥ 9.00 | ≥ 9.00 | COc1ccc(F)cc1C(=O)NCc1ccc(-c2ncc(-c3ccc(OCCN4CCOCC4)cn3)c3[nH]nc(N)c23)cc1 [Example 61, N-(4-(3-amino-7-(5-(2-morpholinoethoxy)pyridin-2-yl)-1H-pyrazolo[4,3-c]pyridin-4-yl)benzyl)-5-fluoro-2-methoxybenzamide] | ≥ 8.30 | ≥ 8.30 |
| 8.30 to 9.00 | 8.30 to 9.00 | 8.30 to 9.00 | COc1ccc(F)cc1C(=O)NCc1ccc(-c2ncc(-c3ccc(C(C)(C)O)cn3)c3[nH]nc(N)c23)cc1 [Example 65, N-(4-(3-amino-7-(5-(2-hydroxypropan-2-yl)pyridin-2-yl)-1H-pyrazolo[4,3-c]pyridin-4-yl)benzyl)-5-fluoro-2-methoxybenzamide] | 8.00 to 8.30 | ≥ 8.30 |
| 7.30 to 8.30 | 8.30 to 9.00 | 8.30 to 9.00 | COc1ccc(F)cc1C(=O)NCc1ccc(-c2ncc(-c3ccc(CN4CCN(C)CC4)cn3)c3[nH]nc(N)c23)cc1 [Example 68, N-(4-(3-amino-7-(5-((4-methylpiperazin-1-yl)methyl)pyridin-2-yl)-1H-pyrazolo[4,3-c]pyridin-4-yl)benzyl)-5-fluoro-2-methoxybenzamide] | ≥ 8.30 | ≥ 8.30 |
| 7.30 to 8.30 | ≥ 9.00 | ≥ 9.00 | COc1ccc(F)cc1C(=O)NCc1ccc(-c2ncc(-c3cc4ccccn4n3)c3[nH]nc(N)c23)cc1 [Example 69, N-(4-(3-amino-7-(pyrazolo[1,5-a]pyridin-2-yl)-1H-pyrazolo[4,3-c]pyridin-4-yl)benzyl)-5-fluoro-2-methoxybenzamide] | ≥ 8.30 | ≥ 8.30 |
| 7.30 to 8.30 | ≥ 9.00 | ≥ 9.00 | CCN1CCn2nc(-c3cnc(-c4ccc(CNC(=O)c5cc(F)ccc5OC)cc4)c4c(N)n[nH]c34)cc2C1 [Example 72, N-(4-(3-amino-7-(5-ethyl-4,5,6,7-tetrahydropyrazolo[1,5-a]pyrazin-2-yl)-1H-pyrazolo[4,3-c]pyridin-4-yl)benzyl)-5-fluoro-2-methoxybenzamide] | ≥ 8.30 | ≥ 8.30 |
| 7.30 to 8.30 | 8.30 to 9.00 | ≥ 9.00 | COc1ccc(F)cc1C(=O)NCc1ccc(-c2ncc(-c3ccc(N4CCN(C)C[C@H]4C)cn3)c3[nH]nc(N)c23)cc1 [Example 75, (R)-N-(-4-(3-amino-7-(5-(2,4-dimethylpiperazin-1-yl)pyridin-2-yl) 1H-pyrazolo[4,3-c]pyridin-4-yl)benzyl)-5-fluoro-2-methoxybenzamide] | ≥ 8.30 | ≥ 8.30 |
| 8.30 to 9.00 | ≥ 9.00 | ≥ 9.00 | COc1ccc(F)cc1C(=O)NCc1ccc(-c2ncc(-c3ccc(N4CCOCC4)cn3)c3[nH]nc(N)c23)cc1 [Example 76, N-(4-(3-amino-7-(5-morpholinopyridin-2-yl)-1H-pyrazolo[4,3-c]pyridin-4-yl)benzyl)-5-fluoro-2-methoxybenzamide] | ≥ 8.30 | ≥ 8.30 |
| 7.30 to 8.30 | ≥ 9.00 | ≥ 9.00 | COc1ccc(F)cc1C(=O)NCc1ccc(-c2ncc(-c3cc4cnccn4n3)c3[nH]nc(N)c23)cc1 [Example 78, N-(4-(3-amino-7-(pyrazolo[1,5-a]pyrazin-2-yl)-1H-pyrazolo[4,3-c]pyridin-4-yl)benzyl)-5-fluoro-2-methoxybenzamide] | ≥ 8.30 | ≥ 8.30 |
| 6.30 to 7.30 | 8.30 to 9.00 | 8.30 to 9.00 | COc1ccc(F)cc1C(=O)NCc1ccc(-c2ncc(-c3ccc(F)cn3)c3[nH]nc(N)c23)c(F)c1 [Example 82, N-(4-(3-amino-7-(5-fluoropyridin-2-yl)-1H-pyrazolo[4,3-c]pyridin-4-yl)-3-fluorobenzyl)-5-fluoro-2-methoxybenzamide] | ≥ 8.30 | ≥ 8.30 |

Source: EP4741392A1, “1H-PYRAZOLO[4,3-C]PYRIDINE COMPOUND, AND COMPOSITION THEREOF AND USE THEREOF” (Shenzhen TargetRx Co., Ltd., priority 2023, dated 2025)
